Experiments:
[1] = in vivo; cited from earlier work
[2] = system: male CF-1 mice; assay: cocaine induced locomotor stimulation in mice (Example 1); type: in vivo; details: for cocaine induced increase in locomotor activity: oral dose 20 minutes before cocaine sc; for locomotor activity, drug administered alone: oral dose, 8 minute period
Method: Cocaine-produced increases in locomotor activity were blocked by D1/D5 antagonists, but not by D2/D3 antagonists unless relatively high doses were used. In this example, a selective D1/D5 antagonist, SCH 39166, and a selective D2/D3 antagonist, raclopride, were studied on cocaine induced locomotor stimulation in male CF-1 mice. The mice were given an oral dose of SCH 39166, raclopride or vehicle, followed 20 minutes later by a dose of cocaine or vehicle administered subcutaneously (sc).

[3] = in vivo; cited from earlier work; remark: listed apart in the source
[4] = system: cocaine-dependent patients; assay: multi-center double blind study in cocaine-dependent patients, interim analysis (Example 6); type: in vivo
[5] = system: cocaine-dependent patients; assay: as above; type: in vivo; details: for Patients with Weight Loss ≧5 lb. / Weight Change: patients completing ≧28 days of treatment
Method: In a multi-center double blind study an interim analysis had been conducted on approximately 160 cocaine-dependent patients who had been given daily doses of 10 mg, 25 or 100 mg of SCH39166 or of a placebo over a test period of eight weeks.
The Body Mass Index (BMI) and the patient weight were measured at the beginning and end of the study. The BMI is determined by the weight (kg)/height^2 (meters). Patients having BMI's of 20.0-24.9 are considered to be of normal weight, while patients having BMI's over 25.0 are considered to be overweight.
Table 1B indicates the percentage of patients with an initial BMI of 22 or less and the percentage of patients with a BMI of at least 26 who lost at least one unit of BMI.

[6] = system: ob/ob mice; assay: food intake in genetically obese ob/ob mice (Example 4); type: in vivo; details: 3.0 mg/kg ip, p<0.02
Method: Twenty four male mice of a genetically obese strain, i.e. ob/ob mice, aged 16 weeks were individually housed in Nalgene metabolism cages in a reverse light cycle room for the entire duration of the study. Mice were allowed food and water ad libitum. The mice were divided into 5 groups of 4-5 mice each based on baseline food intake and body weight. Mice were dosed intraperitoneally (ip) with vehicle, 0.003, 0.03, 0.3, or 3.0 mg/kg SCH 39166 at the onset of the dark cycle and a known mass of standard rodent chow was provided. Food consumption was measured after five hours, and another ip injection of vehicle or drug was given. Food intake was measured again at 24 hours after the initial injection. These injections and measurements were continued for 72 hours. Seventy two hour cumulative food intake was decreased 17% at 3.0 mg/kg (p<0.02).

[7] = system: people who previously had exhibited a cocaine addiction; type: in vivo, humans
Method: In a double-blind study, the subjects were administered placebo 10 mg of SCH39166, 25 mg of SCH 39166, or 100 mg of SCH 39166 two hours prior to an injection of […] of cocaine. Systolic and diastolic blood pressure in the individuals was measured from 2 hours prior to cocaine injection until approximately 4 hours after cocaine administration.
In the same study, the desire to take cocaine was measured as a function of time after administration of placebo or varying doses of SCH 39166. The desire to take cocaine was measured by the Visual Analog Scale test. This test procedure is described in the British Journal of Medical Psychology, Volume 47. pp 211-218 (1974). In this test the individuals are asked to subjectively rate their feelings to take cocaine on a scale of zero-100, with zero representing no desire at all and 100 representing the strongest feelings. As may be seen in FIG. 7, the euphoric “high” following cocaine administration was lower in patients who had been pre-treated with SCH 39166, particularly a dose of 100 mg.
Even if the compounds of this invention were effective in reducing craving to abused substances or food, individuals would be unlikely to take the craving-reducing drugs unless they had tolerable side effects. […] Therefore, usage of this compound should not be adversely affected by negative opinions of the individuals to whom the drug is administered nor should it cause stimulation following administration.

[8] = system: primate; assay: primate model of food craving and relapse after food restriction; type: in vivo
From the text: (§1) While not wishing to be bound by any theory, D1/D5 antagonists and/or D1/D5 partial agonists may prevent dietary relapse in the treatment of obesity by blocking the rewarding effects of dopamine at the D1/D5 sites associated with cravings.

[9] = cocaine relapse model; cited from earlier work
[10] = system: adult male rats (strain: CD); assay: bar press for food on fixed-ratio schedule FR30 (Example 3); type: in vivo
Method: In this example, adult male rats (strain: CD) were trained to bar press for food on a fixed-ratio schedule of 30 (FR30). A rat had to press a bar 30 times in order to receive one 45 mg pellet of food. Each training session was 30 minutes long. The total response rate (total # of bar presses/30 minutes), i.e., the rate at which rats pressed the bar, was measured and then analyzed in animals that were initially given saline (control animals) and then doses of the D1/D5 antagonists SCH23390 or SCH39166. Each group of six animals received one dose of drug given subcutaneously in a volume of 1 ml/kg 30 minutes before the start of the session.

[11] = up to 3 mg/k; cited from earlier work
[12] = system: healthy volunteers; assay: crossover d-amphetamine study in healthy volunteers; type: in vivo; details: 100 mg pretreatment, 15 mg d-amphetamine, vs placebo
Method: Similarly, in a second crossover study in healthy volunteers administered 15 mg d-amphetamine following pretreatment with 100 mg SCH 39166 or placebo, attenuation of amphetamine euphoric (FIG. 12) and dysphoric (FIG. 13) effects were also observed for SCH 39166 in comparison with the placebo.

[13] = system: adult male Sprague-Dawley (SD) rats; assay: NPY-stimulated food intake in rats (Example 5); type: in vivo; details: 3 mpk ip 30 minutes before i.c.v. NPY
Method: In this experiment, a baseline food intake (in grams) was measured at time intervals of 2, 4, or 24 hours following interocerebral ventricular (i.c.v.) administration of neuropeptide “Y” (NPY), a compound that stimulates an animal to consume food. A 3 μg/5 μl volume of NPY was administered to adult male Sprague-Dawley (SD) rats. On test day, three groups of rats (five rats per group) were pretreated with SCH39166 according to the following dosing schedule:
A dose of SCH39166 was injected intraperitoneally (ip). Thirty minutes later, a […] i.c.v. injection of NPY was administered. The control animals received an ip injection of the vehicle methylcellulose. Thirty minutes later, animals received NPY ([…]). A second group received 1 mpk of SCH39166 ip, and thirty minutes later received […] of NPY. A third group of animals received 3 mpk of SCH39166 ip and thirty minutes later received […] of NPY. Food intake was measured 2 hours, 4 hours, and 24 hours following NPY administration.

[14] = system: monkeys; details: monkeys administered SCH 39166; cited from earlier work
[15] = system: rodent; assay: rodent model of food craving and relapse after food restriction; type: in vivo
From the text: as §1

[16] = daily doses of 10, 25 or 100 mg over eight weeks

In the case of CCN1CCC[C@H]1CNC(=O)c1c(O)c(Cl)cc(Cl)c1OC [raclopride, reference compound], the “block of the response-reinstating effects of food reinforcement” value [1] is given as “sufficient to block the response-reinstating effects of food reinforcement”, the “cocaine induced increase in locomotor activity” value [2] is given as “only affected the cocaine induced increase in locomotor activity at relatively high doses” and the “locomotor activity, drug administered alone” value [2] is given as “dose dependent decrease in locomotor activity”.
In the case of O=C(CCCN1CCC(O)(c2ccc(Cl)cc2)CC1)c1ccc(F)cc1 [haloperidol], the adverse side effects [3] is given as “significant adverse side effects, such as dysphoria, restlessness or stiffness”.
For CN1CCc2cc(Cl)c(O)cc2[C@H]2c3ccccc3CC[C@@H]21 [SCH 39166, (−)- trans-6,7,7a,8,9,13b-hexahydro-3-chloro-2-hydroxy-N-methyl-5H-benzo [d]-naphtho-[2,1-b]azepine], the “% of Patients At Least One Day Since Last Cigarette” value ([4]; 10 mg dose) was 57%, the “% of Patients Abstaining from Alcohol for at Least 1 day” value ([4]; 25 mg dose) was 41% and the “Patients with Weight Loss ≧1 BMI UNIT, Init. BMI ≦22” value ([5]; 10 mg daily) was 2/9 (22%). The “Patients with Weight Loss ≧1 BMI UNIT, Init. BMI ≧26” value ([5]; 10 mg daily) was 2/10 (20%), the “Patients with Weight Loss ≧5 lb.” value ([5]; 10 mg daily) was 27% and the “Weight Change” value ([5]; 10 mg daily) was −1.4 pounds. For the same compound, the “% of Patients Abstaining from Alcohol for at Least 1 day” value ([5]; 10 mg dose) was 43%, the “% of Patients Abstaining from Alcohol for at Least 3 days” value ([5]; 10 mg dose) was 23% and the “% of Patients At Least 3 Days Since Last Cigarette” value ([5]; 10 mg dose) was 27%. For the same compound, the “Patients with Weight Loss ≧1 BMI UNIT, Init. BMI ≦22” value ([5]; 25 mg daily) was 2/10 (20%), the “Patients with Weight Loss ≧1 BMI UNIT, Init. BMI ≧26” value ([5]; 25 mg daily) was 4/13 (30%) and the “Patients with Weight Loss ≧5 lb.” value ([5]; 25 mg daily) was 22%. For the same compound, the “Weight Change” value ([5]; 25 mg daily) was −0.9 pounds, the “% of Patients Abstaining from Alcohol for at Least 3 days” value ([5]; 25 mg dose) was 31% and the “% of Patients At Least 3 Days Since Last Cigarette” value ([5]; 25 mg dose) was 19%. The “% of Patients At Least One Day Since Last Cigarette” value ([5]; 25 mg dose) was 53%, the “Patients with Weight Loss ≧1 BMI UNIT, Init. BMI ≦22” value ([5]; 100 mg daily) was 1/6 (17%) and the “Patients with Weight Loss ≧1 BMI UNIT, Init. BMI ≧26” value ([5]; 100 mg daily) was 10/14 (71%). The “Patients with Weight Loss ≧5 lb.” value ([5]; 100 mg daily) was 45%, the “Weight Change” value ([5]; 100 mg daily) was −3.3 pounds and the “% of Patients Abstaining from Alcohol for at Least 1 day” value ([5]; 100 mg dose) was 59%. The “% of Patients Abstaining from Alcohol for at Least 3 days” value ([5]; 100 mg dose) was 48%, the “% of Patients At Least 3 Days Since Last Cigarette” value ([5]; 100 mg dose) was 17% and the “% of Patients At Least One Day Since Last Cigarette” value ([5]; 100 mg dose) was 38%. The “reducing weight in the obese population” value ([5]; BMI of 26 or greater, particularly at 100 mg/day) was “especially effective in reducing weight”, the reducing alcohol consumption [5, 16] was “effective” and the reducing cigarette smoking [5, 16] was “effective”. The reducing cocaine usage [5, 16] was “did not show efficacy”, the reducing weight [5, 16] was “effective” and the reducing cigarette smoking ([5]; low doses) was “efficacious in reducing cigarette smoking”. The “seventy two hour cumulative food intake decrease” value [6] was 17%, the “reduction in cocaine desire” value ([7]; Visual Analog Scale, 100 mg) was “greatest reduction in cocaine desire” and the “desire to take cocaine” value ([7]; Visual Analog Scale, compared with placebo) was “significantly lower”. The “dysphoric effects, such as anxiety, after cocaine administration” value ([7]; Visual Analog Scale, pre-treated patients) was “lower”, the “euphoric "high" following cocaine administration” value ([7]; Visual Analog Scale, pre-treated patients, particularly a dose of 100 mg) was “lower” and the “"bad drug effects"” value ([7]; in vivo) was “not significantly different from the placebo”. For the same compound, the “systolic and diastolic blood pressure elevations caused by cocaine” value ([7]; in vivo, 30 mg/kg) was “did not adversely affect”, the “relapse associated with the effects of food and environmental cues associated with food” value [8] was “can block the relapse” and the “attenuation of cocaine-seeking behavior” value [9] was “able to attenuate the cocaine-seeking behavior”. The “bar press rate relative to saline-treated control animals” value ([10]; 0.01 mpk subcutaneously 30 minutes before session, FR30) was “significantly reduced the bar press rate”, the “response rate across doses” value ([10]; SCH 23390 0.003-0.03 mpk, SCH 39166 0.001-0.3 mpk, subcutaneously) was “dose-related decrease in response rate until responses were eliminated at the highest dose” and the “effect on total food intake, meal size or feeding rate” value [11] was “no effect”. For the same compound, the amphetamine dysphoric effects [12] was “attenuation”, the amphetamine euphoric effects [12] was “attenuation” and the “food intake 2 hours after NPY administration” value [13] was “significant decrease in food intake”. The “increase in the dose of cocaine required to restore characteristic self-administration performances” value [14] was at least 3 fold, the “cocaine induced increase in locomotor activity” value [2] was “blocked the cocaine induced increase in locomotor activity at all doses of cocaine tested” and the “locomotor activity, drug administered alone” value [2] was “dose dependent decrease in locomotor activity”. For the same compound, the “relapse associated with the effects of food and environmental cues associated with food” value [15] was “can block the relapse”.

Reference: patent publication US20010025038A1, “Method of reducing craving in mammals” (priority 1997, published 2001)
